From PubChem BioAssay (NCI)
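1) Cells in 96-well plates. 2) Compound, 48 h, 5 concentrations. 3) Linear interpolation between surrounding doses. 4) Unreached endpoint = highest concentration. TGI marks complete inhibition of growth.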

What was measured:
Test in all cases: inhibition of tumour cell growth, NCI panel, 48 h
HT29 colon = test system: HT29 colon
ACHN renal = test system: ACHN renal
LOX IMVI melanoma = test system: LOX IMVI melanoma
SF-295 CNS = test system: SF-295 CNS
SF-539 CNS = test system: SF-539 CNS
HCT-116 colon = test system: HCT-116 colon
HOP-62 NSCLC = test system: HOP-62 NSCLC
TK-10 renal = test system: TK-10 renal
SK-MEL-2 melanoma = test system: SK-MEL-2 melanoma
SNB-75 CNS = test system: SNB-75 CNS
DU-145 prostate = test system: DU-145 prostate
UACC-257 melanoma = test system: UACC-257 melanoma
NCI/ADR-RES ovarian = test system: NCI/ADR-RES ovarian
MDA-MB-231 breast = test system: MDA-MB-231 breast
SR leukemia = test system: SR leukemia
SNB-19 CNS = test system: SNB-19 CNS
HL-60(TB) leukemia = test system: HL-60(TB) leukemia
A549 NSCLC = test system: A549 NSCLC
NCI-H226 lung = test system: NCI-H226 lung
MCF7 breast = test system: MCF7 breast
HCC-2998 colon = test system: HCC-2998 colon
COLO 205 colon = test system: COLO 205 colon
MOLT-4 leukemia = test system: MOLT-4 leukemia
K-562 leukemia = test system: K-562 leukemia
MALME-3M melanoma = test system: MALME-3M melanoma
CCRF-CEM leukemia = test system: CCRF-CEM leukemia
HS 578T breast = test system: HS 578T breast
T-47D breast = test system: T-47D breast
OVCAR-5 ovarian = test system: OVCAR-5 ovarian
SK-MEL-28 melanoma = test system: SK-MEL-28 melanoma
SF-268 CNS = test system: SF-268 CNS
NCI-H23 lung = test system: NCI-H23 lung
EKVX NSCLC = test system: EKVX NSCLC
OVCAR-4 ovarian = test system: OVCAR-4 ovarian
BT-549 breast = test system: BT-549 breast
OVCAR-8 ovarian = test system: OVCAR-8 ovarian
KM12 colon = test system: KM12 colon
UO-31 renal = test system: UO-31 renal
NCI-H522 lung = test system: NCI-H522 lung
U251 CNS = test system: U251 CNS
A498 renal = test system: A498 renal
SW-620 colon = test system: SW-620 colon
M14 melanoma = test system: M14 melanoma
HCT-15 colon = test system: HCT-15 colon
RPMI-8226 leukemia = test system: RPMI-8226 leukemia
MDA-MB-435 = test system: MDA-MB-435
SN12C renal = test system: SN12C renal
PC-3 prostate = test system: PC-3 prostate
OVCAR-3 ovarian = test system: OVCAR-3 ovarian
786-0 renal = test system: 786-0 renal
NCI-H460 lung = test system: NCI-H460 lung
HOP-92 NSCLC = test system: HOP-92 NSCLC
UACC-62 melanoma = test system: UACC-62 melanoma
IGROV1 ovarian = test system: IGROV1 ovarian
RXF 393 renal = test system: RXF 393 renal
SK-MEL-5 melanoma = test system: SK-MEL-5 melanoma
CAKI-1 renal = test system: CAKI-1 renal

Measured: TGI

Cc1nc(N)c(N2CCN(S(N)(=O)=O)CC2)c(=O)[nH]1
not listed: HOP-92 NSCLC | UACC-62 melanoma | IGROV1 ovarian | RXF 393 renal | SK-MEL-5 melanoma | CAKI-1 renal
> 100 µM: all other assays above

COc1ccc(NC(=S)Nc2cc(C)ccn2)cc1
not listed: SF-295 CNS | A549 NSCLC | MALME-3M melanoma | OVCAR-5 ovarian | NCI-H522 lung | M14 melanoma | SN12C renal | OVCAR-3 ovarian
> 100 µM: all other assays above
